Test results reported in ChEMBL document CHEMBL1153165, “Solvent-free, microwave assisted synthesis of polyhalo heterocyclic ketene aminals as novel anti-cancer agents” (Bioorg Med Chem Lett, 2010).
In brackets after ≈: the same amount, converted by molar mass.

Key:
Format in all cases: functional, cell-based
K562 = assay: Antitumor activity against human K562 cells by MTT assay
A-431 = assay: Antitumor activity against human A431 cells by MTT assay
HL-60 = assay: Antitumor activity against human HL60 cells by MTT assay
SK-OV-3 = assay: Antitumor activity against human SKOV3 cells by MTT assay
HepG2 = assay: Antitumor activity against human HepG2 cells by MTT assay

SMILES	IC50 (K562) [µg/mL]	IC50 (A-431) [µg/mL]	IC50 (HL-60) [µg/mL]	IC50 (SK-OV-3) [µg/mL]	IC50 (HepG2) [µg/mL]
COc1ccc(C(=O)C(=C2NCCN2)c2c(Cl)c(F)c(C#N)c(F)c2C#N)cc1	22.6 (≈ 54.5 µM)	0.7 (≈ 1.69 µM)	0.05 (≈ 0.121 µM)	1.1 (≈ 2.65 µM)	9.8 (≈ 23.6 µM)
CCOC(=O)C(=C1NCCN1)c1c(Cl)c(Cl)c(C#N)c(Cl)c1C#N	0.5 (≈ 1.3 µM)	0.2 (≈ 0.519 µM)	0.4 (≈ 1.04 µM)	4.1 (≈ 10.6 µM)	0.2 (≈ 0.519 µM)
N#Cc1c(F)c(Cl)c(C(C(=O)c2ccc(Cl)cc2)=C2NCCN2)c(C#N)c1F	1.6 (≈ 3.82 µM)	1.8 (≈ 4.29 µM)	0.3 (≈ 0.716 µM)	8.6 (≈ 20.5 µM)	47.5 (≈ 113 µM)
COc1ccc(C(=O)C(=C2NCCN2)c2c(Cl)c(Cl)c(C#N)c(Cl)c2C#N)cc1	0.08 (≈ 0.179 µM)	0.5 (≈ 1.12 µM)	2.3 (≈ 5.14 µM)	6.4 (≈ 14.3 µM)	10.8 (≈ 24.1 µM)
Cc1ccc(C(=O)C(=C2NCCN2)c2c(Cl)c(Cl)c(C#N)c(Cl)c2C#N)cc1	1.4 (≈ 3.24 µM)	4.1 (≈ 9.5 µM)	15.7 (≈ 36.4 µM)	9.2 (≈ 21.3 µM)	15.8 (≈ 36.6 µM)
N#Cc1c(Cl)c(Cl)c(C(C(=O)c2ccccc2)=C2NCCCCN2)c(C#N)c1Cl	0.1 (≈ 0.224 µM)	1 (≈ 2.24 µM)	0.2 (≈ 0.449 µM)	2.7 (≈ 6.06 µM)	14.5 (≈ 32.5 µM)
N#Cc1c(F)c(Cl)c(C(C(=O)c2ccccc2)=C2NCCCCN2)c(C#N)c1F	2.1 (≈ 5.09 µM)	1.5 (≈ 3.63 µM)	0.1 (≈ 0.242 µM)	4.6 (≈ 11.1 µM)	27.8 (≈ 67.3 µM)
N#Cc1c(F)c(Cl)c(C(C(=O)c2ccc(F)cc2)=C2NCCCN2)c(C#N)c1F	1.8 (≈ 4.32 µM)	0.9 (≈ 2.16 µM)	0.6 (≈ 1.44 µM)	8.2 (≈ 19.7 µM)	45.1 (≈ 108 µM)
N#Cc1c(Cl)c(Cl)c(C(C(=O)c2ccccc2)=C2NCCN2)c(C#N)c1Cl	8.5 (≈ 20.4 µM)	2.3 (≈ 5.51 µM)	9.1 (≈ 21.8 µM)	9.9 (≈ 23.7 µM)	10.2 (≈ 24.4 µM)
CC(=O)C(=C1NCCN1)c1c(Cl)c(Cl)c(C#N)c(Cl)c1C#N	0.1 (≈ 0.281 µM)	1.5 (≈ 4.22 µM)	3.7 (≈ 10.4 µM)	14.1 (≈ 39.6 µM)	5.8 (≈ 16.3 µM)
CCOC(=O)C(=C1NCCN1)c1c(Cl)c(F)c(C#N)c(F)c1C#N	0.09 (≈ 0.255 µM)	3.9 (≈ 11.1 µM)	0.02 (≈ 0.0567 µM)	4.9 (≈ 13.9 µM)	2.5 (≈ 7.09 µM)
N#Cc1c(F)c(F)c(C(C(=O)c2ccccc2)=C2NCCN2)c(C#N)c1F	19.6 (≈ 53.2 µM)	5.5 (≈ 14.9 µM)	0.2 (≈ 0.543 µM)	30.3 (≈ 82.3 µM)	9.1 (≈ 24.7 µM)
CCOC(=O)C(=C1NCCN1)c1c(F)c(F)c(C#N)c(F)c1C#N	0.03 (≈ 0.0892 µM)	3.7 (≈ 11 µM)	0.02 (≈ 0.0595 µM)	3.3 (≈ 9.81 µM)	0.7 (≈ 2.08 µM)
Cc1ccc(C(=O)C(=C2NCCN2)c2c(F)c(F)c(C#N)c(F)c2C#N)cc1	0.9 (≈ 2.35 µM)	0.5 (≈ 1.31 µM)	0.04 (≈ 0.105 µM)	2 (≈ 5.23 µM)	29.2 (≈ 76.4 µM)
N#Cc1c(Cl)c(Cl)c(C(C(=O)c2ccc(F)cc2)=C2NCCCN2)c(C#N)c1Cl	0.2 (≈ 0.445 µM)	1.1 (≈ 2.45 µM)	2.1 (≈ 4.67 µM)	10.4 (≈ 23.1 µM)	31.8 (≈ 70.7 µM)
N#Cc1c(F)c(C#N)c(C(C(=O)c2ccccc2)=C2NCCN2)c(F)c1Nc1ccccc1	5.6 (≈ 12.7 µM)	5.3 (≈ 12 µM)	0.3 (≈ 0.68 µM)	0.2 (≈ 0.453 µM)	102 (≈ 231 µM)
Cc1ccc(C(=O)C(=C2NCCN2)c2c(Cl)c(F)c(C#N)c(F)c2C#N)cc1	41.9 (≈ 105 µM)	1.7 (≈ 4.26 µM)	0.03 (≈ 0.0752 µM)	6.7 (≈ 16.8 µM)	49.1 (≈ 123 µM)
N#Cc1c(Cl)c(Cl)c(C(C(=O)c2ccc(Cl)cc2)=C2NCCN2)c(C#N)c1Cl	0.8 (≈ 1.77 µM)	1.5 (≈ 3.32 µM)	0.5 (≈ 1.11 µM)	1.6 (≈ 3.54 µM)	5.2 (≈ 11.5 µM)
CC(=O)C(=C1NCCN1)c1c(Cl)c(F)c(C#N)c(F)c1C#N	4.4 (≈ 13.6 µM)	2.9 (≈ 8.99 µM)	0.3 (≈ 0.93 µM)	1.5 (≈ 4.65 µM)	1.3 (≈ 4.03 µM)
N#Cc1c(F)c(F)c(C(C(=O)c2ccc(Cl)cc2)=C2NCCN2)c(C#N)c1F	1.8 (≈ 4.47 µM)	3.2 (≈ 7.95 µM)	0.3 (≈ 0.745 µM)	3.8 (≈ 9.43 µM)	12.5 (≈ 31 µM)
N#Cc1c(F)c(Cl)c(C(C(=O)c2ccccc2)=C2NCCN2)c(C#N)c1F	20.8 (≈ 54.1 µM)	87.1 (≈ 226 µM)	4.7 (≈ 12.2 µM)	32.6 (≈ 84.7 µM)	32.6 (≈ 84.7 µM)
N#Cc1c(F)c(F)c(C(C(=O)c2ccc(F)cc2)=C2NCCCN2)c(C#N)c1F	2.5 (≈ 6.24 µM)	1.8 (≈ 4.5 µM)	0.04 (≈ 0.0999 µM)	0.5 (≈ 1.25 µM)	11 (≈ 27.5 µM)
N#Cc1c(F)c(F)c(C(C(=O)c2ccccc2)=C2NCCCCN2)c(C#N)c1F	0.3 (≈ 0.757 µM)	1.9 (≈ 4.79 µM)	0.1 (≈ 0.252 µM)	4.2 (≈ 10.6 µM)	24.9 (≈ 62.8 µM)
